Numbered stars: 1 amine (or outer) side, 2 acyl side, 3 side chain; on linkers, the order of the positions; unused ones are H or OH. Bridge positions count the residues as written; N and C are the ends. Square brackets hold non-standard residues; d marks the D form. Peptide text beside a SMILES is read from it. Trp(2-yl) = O=C([C@H](Cc1c([*:3])[nH]c2ccccc12)N[*:1])[*:2]; Leu(4R-OH,5-OH) = C[C@](O)(CO)C[C@H](N)C(=O)O; cisHyp = O=C(O)[C@@H]1C[C@H](O)CN1
Tests used:
rats given phalloidin [1] = assay: Toxicity of phalloidin: hemorrhagic liver lesions and mortality after pretreatment; type: in vivo, Sprague-Dawley rat; settings: for Hepatic lesions (Scale: 0-3) / Mortality (%): pretreatment before phalloidin 0.12 mg/100 g i.p.; for Hepatic lesions (Scale: 0-3): 0=normal, 3=enlargement and uniform hemorrhage of whole liver; for Mortality (%): observed up to 24 hr; for protective effect against phalloidin toxicity (lesions, mortality), in words: rats given phalloidin 0.12 mg/100 g i.p.
Method: In the present studies, Sprague-Dawley rats with an initial body weight of about 200 g had free access to Purina lab chow and tap water. Each control and experimental group consisted of 3-5 animals; every experiment was performed at least twice and the results were pooled.
Somatostatin (250 μg in 1 ml of protamine sulfate and ZnCl2 suspension) was injected s.c. 30 min before and 30 min after the administration of phalloidin (0.12 mg/100 g i.p.). In addition, 10 min before the toxin, another dose of 250 μg of somatostatin in 1 ml of distilled water was given i.p. Other groups of rats also received the sulfhydryl blocker N-ethylmaleimide (alone or in combination with somatostatin), 2 mg/100 g s.c. 20 min before and 40 min after phalloidin. A --SH free agalogue of somatostatin was used instead of the regular somatostatin in the same dose and at the same time in some experiments. This --SH free analogus was Di-S-tBu-Somatostatin, in which the hydrogens of the --SH groups (cystein) were replaced with t-butyl groups. […] The hemorrhagic liver lesions were evaluated on a scale of 0-3, where 0=normal, 1=multifocal (1-5 mm) hemorrhages, 2=large hemorrhagic areas entirely involving one lobe (usually the left and/or medium), 3=enlargement and uniform hemorrhage involving the whole liver.

rats given phalloidin [2] = assay: Model study: phalloidin intoxication of rats, mortality, liver weight, histology; type: in vivo, rat; settings: for liver histology (light microscopy): phalloidin-intoxicated rats, with or without somatostatin
Method: This toxin kills rats within about 4 hours after intraperitoneal injection. Rats injected with phalloidin show a massive increase in liver size accompanied by hemorrhage. In a control group of rats given phalloidin but no somatostatin, 22 or 24 rats died within 2-4 hours. […] In the test group of 26 animals that were treated with both phalloidin and somatostatin, only 8 rats died. Furthermore, only a 30% average increase in liver weight was found in 10 animals treated with somatostatin and phalloidin and sacrificed four hours after intoxication.

[3] = test system: hepatic blood vessels of rats given phalloidin; assay: Hepatic uptake of Evans blue after phalloidin (vascular and hepatic membrane lesions); type: in vivo, Sprague-Dawley rat; settings: for Evans blue (μg/g liver): Evans blue 1 mg/100 g i.v. 15 min before autopsy, somatostatin 250 μg s.c. 30 and 10 min before phalloidin; for hepatic uptake of Evans blue, in words: rats given phalloidin with or without somatostatin
Method: (§1) In the biochemical experiments, the animals were also injected with Evans blue 15 min before autopsy. At autopsy the portal vein was perfused in situ with 20 ml of saline to remove blood from hepatic vasculature. […] In the morphologic experiments, groups of rats were also injected with colloidal carbon (India ink, 0.1 mg/100 g i.v.) 15 min before autopsy. At that time pieces of liver were processed for subsequent light or electron microscopic studies. […] In rats given phalloidin, carbon labeling of sinusoidal macrophages was decreased in the centrilobular areas, while early deposits of carbon were seen along the sinusoidal walls in the periportal regions. […] As opposed to controls, carbon particles were also seen beyond endothelial cells and in Disse space soon after phalloidin injection. Subsequently, vacuolation of hepatocytes and increased amount of extravascular plasma-like material were noticed.
In all of the experiments, female or male Sprague-Dawley rats (150-200 g) were used. The animals were given free access to Purina lab chow and tap water. Each group consisted of at least 3-4 rats; every experiment was repeated at least twice and the results were pooled.
Control animals were injected with normal saline 30 min prior to sacrifice and autopsy. Animals treated with phalloidin alone were injected i.p. with 0.12 mg/100 g body weight 15 min, 30 min, or 60 min before sacrifice and autopsy. Animals treated with both phalloidin and somatostatin received phalloidin as above in addition to 250 μg s.c. somatostatin at 30 and 10 minutes before the phalloidin injection. The first somatostatin injection was dissolved in 1 ml of solution consisting of 0.5 ml of 0.1% protamine sulfate and 0.5 ml of ZnCl2, 250-260 μg/ml. The second somatostatin injection was given in normal saline. In addition, rats of all groups were given Evans blue, 1 mg/100 g i.v., 15 min before sacrifice and autopsy. Livers were prefused with 20 ml of saline in situ through the protal vein to remove intravascular dye prior to measuring dye uptake by the liver tissue.
A one gram sample from the left lobe was measured spectrophotometrically to determine the uptake of Evans blue dye in μg/g liver tissue.

[4] = test system: liver of rats given phalloidin; assay: Morphologic experiments: colloidal carbon (India ink) labeling of liver, light and electron microscopy; type: in vivo, rat
Method: In both cases, rats were given saline (control), phalloidin alone, or phalloidin and somatostatin. Somatostatin was given in subcutaneous injections in a solution of protamine sulfate and zinc chloride in order to prolong its effectiveness, or in normal saline.
as §1

adrenal and lung lesions = settings: in vivo; cited from earlier work
[5] = test system: experimentally-induced pancreatitis; settings: in vivo; cited from earlier work
[6] = test system: cysteamine-induced duodenal ulcer; settings: pretreatment with exogenous somatostatin; cited from earlier work
[7] = 15 min after phalloidin 0.12 mg/100 g i.p.
[8] = 30 min after phalloidin 0.12 mg/100 g i.p.
[9] = 60 min after phalloidin 0.12 mg/100 g i.p.

CCN1C(=O)C=CC1=O [N--Ethylmaleimide (N--EM), N-ethylmaleimide]
Hepatic lesions (Scale: 0-3) (rats given phalloidin [1]): 2.3 ± 0.2 | Mortality (%) (rats given phalloidin [1]): 90% | protective effect against phalloidin toxicity (lesions, mortality), in words (rats given phalloidin [1]; listed as N-ethylmaleimide): counteracted the protective action of regular somatostatin | protective effect against phalloidin toxicity (lesions, mortality), in words (rats given phalloidin [1]; listed as N-ethylmaleimide (N-EM)): counteracted the beneficial effect of somatostatin

C[C@@H]1NC(=O)[C@H](C[C@@](C)(O)CO)NC(=O)[C@@H]2Cc3c([nH]c4ccccc34)SC[C@H](NC(=O)[C@@H]([C@H](C)O)NC1=O)C(=O)N1C[C@@H](O)C[C@H]1C(=O)N[C@@H](C)C(=O)N2 [Phalloidin, phalloidin] (cyclo(A[dT]C[cisHyp]A[Trp(2-yl)][Leu(4R-OH,5-OH)]); thioether 3-6)
time within which the toxin kills rats (rats given phalloidin [2]; after intraperitoneal injection): ≤ 4 h | average increase in liver weight, phalloidin alone (rats given phalloidin [2]; autopsy of rats that died after phalloidin alone): 70% | rats died, phalloidin but no somatostatin (rats given phalloidin [2]; control group of 24 rats given phalloidin alone): 22 rats | time within which control rats died (rats given phalloidin [2]; control group, phalloidin but no somatostatin): 2 to 4 h | liver histology (light microscopy) (rats given phalloidin [2]): vacuolization of hepatocytes, congestion, and hemorrhagic necrosis | Evans blue (μg/g liver) [3, 7]: 11.21 ± 2.40 μg/g liver | Evans blue (μg/g liver) [3, 8]: 28.50 ± 4.67 μg/g liver | Evans blue (μg/g liver) [3, 9]: 51.08 ± 13.56 μg/g liver | hepatic uptake of Evans blue, in words [3]: time dependent increase

Di-S-tBu-Somatostatin [di-S--tBu-Somatostatin]
Hepatic lesions (Scale: 0-3) (rats given phalloidin [1]): 2.7 ± 0.2 | Mortality (%) (rats given phalloidin [1]): 92% | protective effect against phalloidin toxicity (lesions, mortality), in words (rats given phalloidin [1]; listed as somatostatin analogue without thiol groups): inactive | protective effect against phalloidin toxicity (lesions, mortality), in words (rats given phalloidin [1]; listed as sulfhydryl-free derivative of somatostatin): without effect

Somatostatin
distribution of India ink / carbon labeling of sinusoidal walls, light microscopy ([4]; colloidal carbon 0.1 mg/100 g i.v. 15 min before autopsy, after phalloidin): virtually abolished the carbon labeling of sinusoidal walls | electron microscopic changes (endothelial breakdown, extravascular carbon, vacuolation of hepatocytes) ([4]; livers of rats given somatostatin and phalloidin): markedly diminished or absent | Hepatic lesions (Scale: 0-3) (rats given phalloidin [1]): 0.7 ± 0.2 | Mortality (%) (rats given phalloidin [1]): 20% | protective effect against phalloidin toxicity (lesions, mortality), in words (rats given phalloidin [1]): significantly diminished | effect on adrenal and lung lesions (adrenal and lung lesions): beneficial effect | average increase in liver weight, somatostatin and phalloidin (rats given phalloidin [2]; 10 animals sacrificed four hours after intoxication): 30% | liver histology (light microscopy) (rats given phalloidin [2]): only mild vacuolization of hepatocytes and slight congestion | rats died, phalloidin and somatostatin (rats given phalloidin [2]; test group of 26 animals treated with both phalloidin and somatostatin): 8 rats | Evans blue (μg/g liver) [3, 7]: 7.17 ± 0.64 μg/g liver | Evans blue (μg/g liver) [3, 8]: 16.93 ± 4.76 μg/g liver | Evans blue (μg/g liver) [3, 9]: 15.50 ± 4.65 μg/g liver | hepatic uptake of Evans blue, in words [3]: virtually abolished this enhanced uptake | hepatic uptake of Evans blue, in words ([3]; listed as somatostatin): prevented or significantly decreased | effect on experimentally-induced pancreatitis [5]: beneficial effect | cysteamine-induced duodenal ulcer [6]: prevents | gastric acid output [6]: minimal inhibition

— US4366148A, “Use of somatostatin in the prevention and cure of vascular, membrane, or organ lesions” (Brigham and Women's Hospital, priority 1981, dated 1982)
